Assays:
ERK5 = target: T1, ERK5 (Homo sapiens, UniProt Q13164); assay: Inhibition of Cellular ERK5 Activity (cell-based assay, MEF2 luciferase reporter in SN12C cells); conditions: renal cancer cell line SN12C, doxycycline-induced MEKSDD, mean where repeated
T1 construct: MEF2-luciferase reporter
Outline: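 SN12C cells carrying a MEF2-luciferase reporter and doxycycline-inducible (1 μg/ml) constitutively active MEK5DD, seeded 24 h before compound addition at 0.3–1000 nM (0.1% DMSO final). Luminescence read; IC50 is the concentration giving 50% signal reduction versus DMSO-treated cells.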

[1] = target: T2, ERK5 (activated catalytic domain) (Homo sapiens, UniProt Q13164); assay: Cell-Free Assay of ERK5 Inhibition (Time-Resolved FRET, 4EBP1 peptide phosphorylation); type: biochemical; conditions: ERK5 catalytic domain 4 nM, 1 mM ATP, 1 μM biotinylated 4EBP1 peptide, 30 min at 37° C.; mean where repeated; read-out: Cell-free assay (IC50 in nM)
T2 construct: purchased CarnaBiosciences 04-146
Outline: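 Activated ERK5 catalytic domain at 4 nM preincubated 30 min at room temperature with compound, then 1 mM ATP and 1 μM biotinylated 4EBP1 (aa 30-52) peptide added for 30 min at 37° C. Phosphorylation detected by TR-FRET; IC50 versus DMSO control, repeats averaged.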

T1 sequence (Q13164 whole entry): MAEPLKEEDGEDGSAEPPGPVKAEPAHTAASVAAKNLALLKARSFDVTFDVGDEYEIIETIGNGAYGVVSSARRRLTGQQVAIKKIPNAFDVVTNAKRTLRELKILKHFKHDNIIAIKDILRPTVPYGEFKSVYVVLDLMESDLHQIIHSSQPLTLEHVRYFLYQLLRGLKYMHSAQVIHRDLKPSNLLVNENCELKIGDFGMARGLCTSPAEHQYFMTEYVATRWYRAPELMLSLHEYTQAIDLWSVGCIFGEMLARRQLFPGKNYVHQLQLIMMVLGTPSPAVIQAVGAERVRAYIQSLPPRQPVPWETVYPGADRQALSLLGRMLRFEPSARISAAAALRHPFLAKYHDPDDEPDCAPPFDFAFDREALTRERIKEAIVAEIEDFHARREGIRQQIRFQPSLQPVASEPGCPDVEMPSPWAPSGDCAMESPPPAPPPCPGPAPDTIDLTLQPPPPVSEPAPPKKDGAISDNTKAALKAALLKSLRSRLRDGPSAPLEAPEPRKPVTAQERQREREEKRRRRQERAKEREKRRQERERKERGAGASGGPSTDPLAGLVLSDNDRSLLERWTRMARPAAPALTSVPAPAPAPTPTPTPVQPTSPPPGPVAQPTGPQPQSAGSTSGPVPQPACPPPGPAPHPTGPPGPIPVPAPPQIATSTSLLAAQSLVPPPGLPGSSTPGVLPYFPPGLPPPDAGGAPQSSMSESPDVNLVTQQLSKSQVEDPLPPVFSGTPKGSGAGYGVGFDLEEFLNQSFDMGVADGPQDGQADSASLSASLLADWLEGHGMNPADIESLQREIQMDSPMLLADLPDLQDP
T2 sequence (Q13164 55-347 limits assumed): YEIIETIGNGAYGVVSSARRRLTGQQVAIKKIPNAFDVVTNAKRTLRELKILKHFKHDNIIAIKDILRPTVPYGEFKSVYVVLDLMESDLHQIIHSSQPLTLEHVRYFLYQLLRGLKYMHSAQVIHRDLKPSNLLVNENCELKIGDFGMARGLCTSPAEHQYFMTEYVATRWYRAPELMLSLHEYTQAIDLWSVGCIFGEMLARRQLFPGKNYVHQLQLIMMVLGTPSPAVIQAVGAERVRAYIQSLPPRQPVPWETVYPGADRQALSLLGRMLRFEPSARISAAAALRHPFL

SMILES | IC50 (ERK5) [nM] | IC50 [1] [nM]
CN1CCC(c2cnc3[nH]c(=O)n(C4CCN(C(=O)c5ccc(OC(F)(F)F)cc5N)CC4)c3c2)CC1 [Example 54, 1-[1-[2-amino-4-(trifluoromethoxy)benzoyl]-4-piperidyl]-6-(1-methyl-4-piperidyl)-3H-imidazo[4,5-b]pyridin-2-one] | 168 | 78
O=C(c1ccc(OC(F)(F)F)cc1)N1CCC(n2c(=O)[nH]c3ncc([C@H]4CC[C@H](O)CC4)cc32)CC1 [Example 57, trans-6-(4-hydroxycyclohexyl)-1-[1-[4-(trifluoromethoxy)benzoyl]-4-piperidyl]-3H-imidazo[4,5-b]pyridine-2-one] | 204 | 180
O=C(c1ccc(OC(F)(F)F)cc1)N1CCC(n2c(=O)[nH]c3ncc([C@H]4CC[C@@H](O)CC4)cc32)CC1 [Example 58, cis-6-(4-hydroxycyclohexyl)-1-[1-[4-(trifluoromethoxy)benzoyl]-4-piperidyl]-3H-imidazo[4,5-b]pyridin-2-one] | 222 | 288
CC(C)(C)OC(=O)Nc1cc(OC(F)(F)F)ccc1C(=O)N1CCC(n2c(=O)[nH]c3ncc(Br)cc32)CC1 [Example 59, tert-butyl N-[2-[4-(6-bromo-2-oxo-3H-imidazo[4,5-b]pyridin-1-yl)piperidine-1-carbonyl]-5-(trifluoromethoxy)phenyl]carbamate] | 2150 | 30000
O=C(c1ccc(OC(F)(F)F)cc1)N1CCC(n2c(=O)[nH]c3ncc(Br)cc32)CC1 [Example 60, 6-bromo-1-[1-[4-(trifluoromethoxy)benzoyl]-4-piperidyl]-3H-imidazo[4,5-b]pyridin-2-one] | 641 | 1080

— patent US20260297087A1, “Pyridoimidazolone Compounds, Preparation Thereof and Therapeutic Uses Thereof” (Sanofi, priority 2023, published 2026)
